{
  "source": "patent US20220402862A1",
  "about": "(Intellia Therapeutics, Inc., priority 2019, published 2022)",
  "key": {"[1]": {"assay": "RNA encapsulation efficiency of LNPs (Ribogreen fluorescence assay)", "format": "physicochemical", "method_in_brief": "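LNPs were diluted in 1× TE with 0.2% Triton X-100 (total RNA) or without it (free RNA), stained with RiboGreen for ~10 min at room temperature in the dark, and read at Ex 488/Em 525 nm against standard curves of the starting RNA. Encapsulation efficiency = (Total − Free)/Total.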"}, "Transthyretin (TTR) [2]": {"tested_on": "Transthyretin (TTR)", "assay": "Serum TTR ELISA in mice after LNP dosing", "format": "in vivo, CD-1 female mice", "settings": "guide G282 experiments", "method_in_brief": "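Female CD-1 mice, 6–10 weeks, given LNPs by tail-vein injection (~10 mL/kg), 0.1 mg/kg unless noted; serum taken at day 6 or 7 by cardiac puncture. Total mouse TTR by ELISA on sera diluted 10,000-fold (0.1 mg/kg) or 10,000- and 2,500-fold (0.3 mg/kg).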"}, "Transthyretin (TTR) [3]": {"tested_on": "Transthyretin (TTR)", "assay": "Serum TTR measurement in rats after LNP dosing", "format": "in vivo, Sprague Dawley female rats", "settings": "Experiment 109; for Serum TTR % TSS: rat serum TTR relative to TSS control; for Serum TTR: rat serum, G534 sgRNA + Cas9 mRNA LNP"}, "[4]": {"assay": "Dynamic light scattering of LNPs: Z-average diameter, number average diameter, PDI", "format": "physicochemical", "method_in_brief": "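LNP samples were diluted in PBS and measured by DLS to give intensity-based Z-average diameter, number average diameter and polydispersity index. PDI describes size spread around the mean, with zero meaning a uniform population.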"}, "TTR rat gene": {"tested_on": "TTR rat gene", "assay": "In vivo editing in rat liver, sgRNA targeting TTR (G534), % indel by NGS", "design": "species or system Sprague Dawley female rats", "settings": "G534 sgRNA + Cas9 mRNA LNP, Experiment 109", "method": "Sprague Dawley female rats ranging from 6-7 weeks of age were used in each study. Each animal was weighed and dosing solutions were prepared based on body weight. LNPs were dosed via the lateral tail vein in a volume of 0.35 mL per animal (approximately 2 mL per kilogram body weight). The animals were periodically observed for adverse effects for at least 24 hours post dose.\nFor studies measuring in vivo editing in liver, animals were dosed at 0.1 mg/kg or 0.3 mg/kg. Animals were euthanized by CO2 asphyxiation 6 days post dose. At necropsy, the liver was collected for editing analysis by NGS and blood was collected into serum separator tubes for serum TTR measurement.\nIn brief, to quantitatively determine the efficiency of editing at the target location in the genome, genomic DNA was isolated and deep sequencing was utilized to identify the presence of insertions and deletions introduced by gene editing.\nPCR primers were designed around the target site (e.g., within B2M), and the genomic area of interest was amplified. Additional PCR was performed according to the manufacturer's protocols (Illumina) to add the necessary chemistry for sequencing. The amplicons were sequenced on an Illumina MiSeq instrument. The reads were aligned to the mouse or rat reference genome (e.g., GRCm38) after eliminating those having low quality scores. The resulting files containing the reads were mapped to the reference genome (BAM files), where reads that overlapped the target region of interest were selected and the number of wild type reads versus the number of reads which contain an insertion, substitution, or deletion was calculated.\nThe editing percentage (e.g., the “indel efficiency” or “percent indels”) was defined as the total number of sequence reads with insertions or deletions over the total number of sequence reads, including wild type.\nIn vivo delivery in a rat model was assessed by measuring editing efficiency for materials delivered with formulations including various amine lipid compounds. Cas9 mRNA (SEQ ID NO: 6) was formulated as LNPs with an sgRNA targetting the TTR rat gene (G534, SEQ ID NO: 5). LNPs were formulated and characterized as described in Example 123. Analysis of average particle size, polydispersity (PDI), total RNA content and encapsulation efficiency of RNA are shown in Table 10.\nSprague Dawley female rats were dosed i.v. at 0.1 or 0.3 mg/kg and assessed for editing in liver."}, "[5]": {"settings": "LNP with G534 sgRNA and Cas9 mRNA, sg:mRNA 1:2, experiment 109"}, "[6]": {"settings": "LNP, sg:mRNA 1:1, N/P about 6, 50/9/38/3, Table 2, Experiments 2-20"}},
  "data": [
    {"smiles": "CCCCC/C=C\\C/C=C\\CCCCCCCC(=O)OCC(COC(=O)CCC(OCCCCCCCC)OCCCCCCCC)COC(=O)NCCN(CC)CC", "note": "(stereo not shown) [Compound 12, 3-((4,4-bis(octyloxy)butanoyl)oxy)-2-((((2-(diethylamino)ethyl)carbamoyl)oxy)methyl)propyl (9Z,12Z)-octadeca-9,12-dienoate]", "values": [
      {"measurement": "% E (encapsulation efficiency)", "setting": "[1]; [5]", "value": 97, "unit": "%"},
      {"measurement": "Encapsulation (%)", "setting": "[1]; LNP, sg:mRNA 1:1, N/P about 6, amine lipid/DSPC/cholesterol/PEG-2k-DMG 50/9/38/3, Table 2, Experiments 2-20", "value": 83, "unit": "%"},
      {"measurement": "Serum TTR % TSS", "setting": "Transthyretin (TTR) [2]; mouse serum TTR relative to TSS control", "value": 81, "unit": "%"},
      {"measurement": "Serum TTR", "setting": "Transthyretin (TTR) [2]; mouse serum, ELISA", "value": 736, "unit": "µg/mL"},
      {"measurement": "Serum TTR % TSS", "setting": "Transthyretin (TTR) [3]; G534, i.v. 0.1 mg/kg", "value": 45.9, "unit": "% TSS"},
      {"measurement": "Serum TTR % TSS", "setting": "Transthyretin (TTR) [3]; G534, i.v. 0.3 mg/kg", "value": 5.5, "unit": "% TSS"},
      {"measurement": "Serum TTR", "setting": "Transthyretin (TTR) [3]; i.v. 0.1 mg/kg", "value": 744.2, "unit": "µg/mL"},
      {"measurement": "Serum TTR", "setting": "Transthyretin (TTR) [3]; i.v. 0.3 mg/kg", "value": 89.1, "unit": "µg/mL"},
      {"measurement": "Number mean (nm)", "setting": "[4]; [5]", "value": 62, "unit": "nm"},
      {"measurement": "PDI", "setting": "[4]; [5]", "value": 0.06},
      {"measurement": "Z-avg (nm)", "setting": "[4]; [5]", "value": 80, "unit": "nm"},
      {"measurement": "Number mean (nm)", "setting": "[4]; [6]", "value": 73.4, "unit": "nm"},
      {"measurement": "PDI", "setting": "[4]; [6]", "value": 0.007},
      {"measurement": "Z-avg (nm)", "setting": "[4]; [6]", "value": 88.53, "unit": "nm"},
      {"measurement": "Editing Mean % Indel", "setting": "TTR rat gene; i.v. 0.1 mg/kg", "value": 37.6, "unit": "%"},
      {"measurement": "Editing Mean % Indel", "setting": "TTR rat gene; i.v. 0.3 mg/kg", "value": 62.5, "unit": "%"}
    ]}
  ]
}
